From ChEMBL document CHEMBL2396591, “Identification of potent and orally bioavailable nucleotide competing reverse transcriptase inhibitors: in vitro and in vivo optimization of a series of benzofurano[3,2-d]pyrimidin-2-one derived inhibitors” (Bioorg Med Chem Lett, 2013)
Converted amounts (≈) assume the structure as drawn.

Experiments:
[1] = Octanol-phosphate buffer partition coefficient, log D of the compound at pH 7.4; assay type: physicochemical
[2] = Aqueous solubility of the compound in phosphate buffer at pH 2 after 24 hrs; assay type: physicochemical
[3] = Aqueous solubility of the compound in phosphate buffer at pH 6.8 after 24 hrs; assay type: physicochemical
[4] = Oral bioavailability in rat at 5 mg/kg; assay type: ADME, organism-based; settings: in vivo
[5] = Cmax in rat at 5 mg/kg, po; assay type: ADME, organism-based; parameters: dose 5 mg/kg, route oral; settings: in vivo
Rattus norvegicus = experiment: Clearance in rat at 2 mg/kg, iv; assay type: ADME, organism-based; parameters: dose 2 mg/kg, route intravenous; settings: in vivo

Row | Structure (SMILES) | logD [1] | solubility at 24 h [2] [µg/mL] | solubility at 24 h [3] [µg/mL] | bioavailability [4] [%] | Cmax [5] [nM] | CL (Rattus norvegicus) [%]
1 | CN(C)c1cnc(-c2nc(=O)n(CCC3CCCO3)c3c2oc2ncc(-c4cnn(C)c4)cc23)cn1 (stereo not drawn) | 2 |  |  |  |  | 
2 | CC[C@H]1C[C@@H](n2c(=O)nc(-c3cnn(C)c3)c3oc4cnc(-c5cn(C)cn5)cc4c32)CCO1 (relative stereo) | 2.6 | 420 (≈ 914 µM) | 5.3 (≈ 11.5 µM) |  |  | 
3 | CNc1ccc(-c2nc(=O)n(CCC3CCCCO3)c3c2oc2ncc(-c4cnn(C)c4)cc23)cn1 (stereo not drawn) | 3.2 |  |  |  |  | 
4 | CC[C@H]1C[C@@H](n2c(=O)nc(-c3cnn(C)c3)c3oc4ccc(-c5cn(C)cn5)cc4c32)CCO1 (relative stereo) | 2.6 | > 1000 | 5 (≈ 10.9 µM) | 51 | 1200 | 13
5 | CC[C@H]1C[C@@H](n2c(=O)nc(-c3cnn(C)c3)c3oc4cc(C#N)c(-c5cnn(C)c5)nc4c32)CCO1 (relative stereo) | 2.7 | 7.9 (≈ 16.3 µM) | 2.1 (≈ 4.33 µM) | 94 | 8900 | 4.6
6 | CNc1ccc(-c2nc(=O)n(CC[C@@H]3CCCO3)c3c2oc2ncc(-c4cnn(C)c4)cc23)cn1 |  |  |  | 36 | 140 | 37
7 | CNc1ccc(-c2nc(=O)n(CCC3CCC(C)O3)c3c2oc2ncc(-c4cnn(C)c4)cc23)cn1 (stereo not drawn) | 3.2 |  |  |  |  | 
8 | CNc1ccc(-c2nc(=O)n(CCC3CCCO3)c3c2oc2ncc(-c4cnn(C)c4)cc23)cn1 (racemic) | 2.7 |  |  |  |  | 
9 | CNc1ccc(-c2nc(=O)n(CCC3CCOCC3)c3c2oc2ncc(-c4cnn(C)c4)cc23)cn1 | 2.5 |  |  |  |  | 
10 | COc1cc(-c2nc(=O)n(CCC3CCCO3)c3c2oc2ncc(-c4cnn(C)c4)cc23)ccn1 (stereo not drawn) | 2.8 |  |  |  |  | 
11 | CC[C@H]1C[C@@H](n2c(=O)nc(-c3cnn(C)c3)c3oc4ncc(-c5cn(C)cn5)cc4c32)CCO1 (relative stereo) | 1.8 | > 1000 | 2.8 (≈ 6.09 µM) |  |  | 
12 | CC[C@H]1C[C@@H](n2c(=O)nc(-c3cnn(C)c3)c3oc4ccc(-c5cncn5C)cc4c32)CCO1 (relative stereo) | 2.3 | > 920 | 106 (≈ 231 µM) |  |  | 
13 | Cn1cc(-c2cnc3oc4c(-c5cn(C)nn5)nc(=O)n(CCC5CCCO5)c4c3c2)cn1 (stereo not drawn) | 1.5 |  |  |  |  | 
14 | Cn1cc(-c2cnc3oc4c(-c5ccncc5)nc(=O)n(CCC5CCCO5)c4c3c2)cn1 (stereo not drawn) | 1.8 |  |  |  |  | 
15 | CCn1cc(-c2nc(=O)n(CCC3CCCO3)c3c2oc2ncc(-c4cnn(C)c4)cc23)cn1 (stereo not drawn) | 2.2 |  |  |  |  | 
16 | CNc1ccc(-c2nc(=O)n(CCC3CC(C)(C)CO3)c3c2oc2ncc(-c4cnn(C)c4)cc23)cn1 (stereo not drawn) | 3.4 |  |  |  |  | 
17 | CC[C@H]1C[C@@H](n2c(=O)nc(-c3cnn(C)c3)c3oc4ccc(-c5cnn(C)c5)cc4c32)CCO1 (relative stereo) | 3 | < 0.1 | < 0.1 |  |  | 

Row | Structure (SMILES) | logD [1] | solubility at 24 h [2] [µg/mL] | solubility at 24 h [3] [µg/mL] | bioavailability [4] [%] | Cmax [5] [nM] | CL (Rattus norvegicus) [%]
18 | CC[C@H]1C[C@@H](n2c(=O)nc(-c3cnn(C)c3)c3oc4ccc(-c5cn(C)cn5)nc4c32)CCO1 (relative stereo) | 2.7 | > 480 | 0.6 (≈ 1.31 µM) | 69 | 3100 | 9.4
19 | CC[C@H]1C[C@@H](n2c(=O)nc(-c3cnn(C)c3)c3oc4cnc(-c5cnn(C)c5)cc4c32)CCO1 (relative stereo) | 2.2 | < 0.1 | < 0.1 | 88 | 1600 | 18
20 | COc1ccc(-c2nc(=O)n(CCC3CCCO3)c3c2oc2ncc(-c4cnn(C)c4)cc23)cn1 (stereo not drawn) | 2.8 |  |  |  |  | 
21 | CC[C@H]1C[C@@H](n2c(=O)nc(-c3cnn(C)c3)c3oc4ccc(-c5cnn(C)c5)nc4c32)CCO1 (relative stereo) | 3 | 0.2 (≈ 0.435 µM) | 0.2 (≈ 0.435 µM) | 35 | 460 | 18
22 | Cn1cc(-c2cnc3oc4c(-c5cnn(C)c5)nc(=O)n(CCC5CCCO5)c4c3c2)cn1 (stereo not drawn) | 1.5 |  |  |  |  | 
23 | CC[C@H]1C[C@H](n2c(=O)nc(-c3ccc(NC)nc3)c3oc4ncc(-c5cnn(C)c5)cc4c32)CCO1 (racemic) | 2.6 |  |  |  |  | 
24 | COc1ccc(-c2nc(=O)n(CCC3CCCO3)c3c2oc2ncc(-c4cnn(C)c4)cc23)cc1 (stereo not drawn) | 3.5 |  |  |  |  | 
25 | Cn1cc(-c2cnc3oc4c(-c5cccnc5)nc(=O)n(CCC5CCCO5)c4c3c2)cn1 (stereo not drawn) | 1.7 |  |  |  |  | 
26 | CC[C@H]1C[C@@H](n2c(=O)nc(-c3cnn(C)c3)c3oc4cc(C#N)c(-c5cnn(C)c5)cc4c32)CCO1 (relative stereo) | 2.5 | 0.2 (≈ 0.414 µM) | 0.2 (≈ 0.414 µM) |  |  | 
27 | CNc1ccc(-c2nc(=O)n(C(C)CC3CCCO3)c3c2oc2ncc(-c4cnn(C)c4)cc23)cn1 (stereo not drawn) | 3.3 |  |  |  |  | 
28 | CCC1(OC)CC(n2c(=O)nc(-c3ccc(NC)nc3)c3oc4ncc(-c5cnn(C)c5)cc4c32)C1 (stereo not drawn) | 2.9 |  |  |  |  | 
29 | CNc1ccc(-c2nc(=O)n(CCC3CCCO3)c3c2oc2ncc(-c4cnn(C)c4)cc23)nc1 (stereo not drawn) | 1.9 |  |  |  |  | 
30 | COc1cncc(-c2nc(=O)n(CCC3CCCO3)c3c2oc2ncc(-c4cnn(C)c4)cc23)c1 (stereo not drawn) | 2.5 |  |  |  |  | 
31 | Cn1cc(-c2cnc3oc4c(-c5cscn5)nc(=O)n(CCC5CCCO5)c4c3c2)cn1 (stereo not drawn) | 1.5 |  |  |  |  | 
32 | CC[C@H]1C[C@@H](n2c(=O)nc(-c3ccc(NC)nc3)c3oc4ncc(-c5cnn(C)c5)cc4c32)CCO1 (racemic) | 2.9 |  |  | 34 | 1100 | 19
33 | Cn1cc(-c2cnc3oc4c(-c5ccn(C)n5)nc(=O)n(CCC5CCCO5)c4c3c2)cn1 (stereo not drawn) | 0.9 |  |  |  |  | 
